Common to all, as to format: functional, cell-based
Experiment [1] has as its system RAW264.7. Briefly: Antiinflammatory activity in mouse RAW264.7 cells assessed as inhibition of LPS-induced COX2 mRNA expression preincubated for 30 mins followed by LPS-stimulation and measured after 18 hrs by QuantiFast SYBR Green dye based RT-PCR analysis.
In experiment [2] the test system is RAW264.7. Put plainly: Antiinflammatory activity in mouse RAW264.7 cells assessed as inhibition of LPS-induced COX2 mRNA expression at 10 uM preincubated for 30 mins followed by LPS-stimulation and measured after 18 hrs by QuantiFast SYBR Green dye based RT-PCR analysis.
The test system of experiment [3] is RAW264.7. Briefly: Antiinflammatory activity in mouse RAW264.7 cells assessed as inhibition of LPS-induced COX2 expression at 1 to 10 uM preincubated for 30 mins followed by LPS-stimulation and measured after 18 hrs by Western blot analysis. Background: A western blot detects proteins with antibodies after separation by electrophoresis.
Experiment [4] has as its system RAW264.7. Put plainly: Antiinflammatory activity in mouse RAW264.7 cells assessed as inhibition of LPS-induced PGE2 formation preincubated for 30 mins followed by LPS-stimulation and measured after 18 hrs by ELISA. (In general: An ELISA detects its analyte on a solid surface through an enzyme-linked reagent.)
The subject of experiment [5] is RAW264.7. Briefly: Antiinflammatory activity in mouse RAW264.7 cells assessed as inhibition of LPS-induced COX2 mRNA expression at 50 uM preincubated for 30 mins followed by LPS-stimulation and measured after 18 hrs by QuantiFast SYBR Green dye based RT-PCR analysis.

Molecules are shown by their SMILES. Activity calls are given as the source filed them. The rule behind the calls is not given here.

In the case of `CC(C)[C@@H](O)[C@H]1CC[C@@]2(C)[C@@H]1[C@]1(C)CC[C@H]2O1`, the inhibition result in experiment [1] and in experiment [4] was “Dose-dependent effect” in each case. In addition, the inhibition entry in experiment [2] and in experiment [3] was “Active” each time.
On to `Cc1cnc(NC(=O)C2=C(O)c3ccccc3S(=O)(=O)N2C)s1`, for which the inhibition entry in experiment [5] was “Active”.
For the compound `C[C@@H]1CC[C@H]2[C@@H]1[C@H]1[C@@H](CC[C@@]2(C)O)C1(C)C`, the inhibition result in experiment [1] was “Dose-dependent effect”. For the same compound, the inhibition entry in experiment [2] and in experiment [3] was “Active” throughout.
For the compound `CC1(C)[C@H]2[C@H]3[C@@H](CC[C@]3(C)O)[C@](C)(O)CC[C@H]21`, in experiment [1], the inhibition entry was “Dose-dependent effect”. Also, the inhibition result in experiment [2] and in experiment [3] was “Active” each time.

The record behind these values is ChEMBL document CHEMBL4392840, “Further sesquiterpenoids from the rhizomes of Homalomena occulta and their anti-inflammatory activity” (Bioorg Med Chem Lett, 2019).
